This is an account of results in ChEMBL document CHEMBL3045122, “Synthesis, in vitro antimicrobial, antiproliferative, and QSAR studies of N-(substituted phenyl)-2/4-(1H-indol-3-ylazo)-benzamides” (Med Chem Res, 2013).

In one assay the test system is HCT-116. The experiment in a line: Cytotoxicity against Homo sapiens (human) HCT116 cells assessed as growth inhibition after 72 hr by MTT assay. The class given is functional, cell-based.
The subject of assay [1] is Aspergillus niger. The experiment in a line: Ratio of MFC to MIC for Aspergillus niger. It counts as functional.
Another assay concerns MCF7. The experiment in a line: Cytotoxicity against Homo sapiens (human) MCF7 cells assessed as growth inhibition after 72 hr by MTT assay. It counts as functional, cell-based.
The subject of assay [2] is Candida albicans. The experiment in a line: Ratio of MFC to MIC for Candida albicans. The class given is functional.
The subject of assay [3] is Escherichia coli. The experiment in a line: Ratio of MBC to MIC for Escherichia coli. It counts as functional.
In assay [4] the test system is Bacillus subtilis. The experiment in a line: Ratio of MBC to MIC for Bacillus subtilis. The class given is functional.
Assay [5] deals with Staphylococcus aureus. Briefly: Ratio of MBC to MIC for Staphylococcus aureus. The class given is functional.
The test system of assay [6] is Aspergillus niger. Briefly: Fungicidal activity against Aspergillus niger. It counts as functional.
In assay [7] the test system is Candida albicans. Briefly: Fungicidal activity against Candida albicans. The class given is functional.
Assay [8] concerns Escherichia coli. The experiment in a line: Bactericidal activity against Escherichia coli. It counts as functional.
The test system of assay [9] is Bacillus subtilis. Briefly: Bactericidal activity against Bacillus subtilis. The class given is functional.
The subject of assay [10] is Staphylococcus aureus. The experiment in a line: Bactericidal activity against Staphylococcus aureus. The class given is functional.
Assay [11] deals with Aspergillus niger. The experiment in a line: Antifungal activity against Aspergillus niger assessed as growth inhibition after 7 days by tube dilution method. The class given is functional.
Assay [12] concerns Escherichia coli. The experiment in a line: Antibacterial activity against Escherichia coli assessed as growth inhibition after 24 hr by tube dilution method. The class given is functional.
Assay [13] has as its system Candida albicans. Briefly: Antifungal activity against Candida albicans assessed as growth inhibition after 48 hr by tube dilution method. The class given is functional.
The subject of assay [14] is Bacillus subtilis. The experiment in a line: Antibacterial activity against Bacillus subtilis assessed as growth inhibition after 24 hr by tube dilution method. The class given is functional.
Assay [15] relates to Staphylococcus aureus. The experiment in a line: Antibacterial activity against Staphylococcus aureus assessed as growth inhibition after 24 hr by tube dilution method. The class given is functional.

As to `O=C(Nc1ccccc1Cl)c1ccccc1/N=N\c1c[nH]c2ccccc12`, the IC50 with HCT-116 is 0.24 uM/ml; with MCF7 it was 0.1067 uM/ml. Besides, the Ratio in the assay on Aspergillus niger [1], with Candida albicans [2], with Escherichia coli [3], in the assay on Bacillus subtilis [4] and in the assay with Staphylococcus aureus [5] was 3 each time. The values for the MFC in the assay on Aspergillus niger [6] and against Candida albicans [7] were 0.03 uM/ml and greater than 0.13 uM/ml, respectively. Besides, the MBC in the assay on Escherichia coli [8], in the assay on Bacillus subtilis [9] and in the assay with Staphylococcus aureus [10] was greater than 0.13 uM/ml each time. For the same compound, the “-logMIC” value with Aspergillus niger [11] was 1.48; in the assay with Escherichia coli [12] it was 1.48; in the assay on Candida albicans [13] it was 1.48; with Bacillus subtilis [14], 1.48; in the assay on Staphylococcus aureus [15] it was 1.18.
On to `O=C(Nc1cccc(Cl)c1)c1ccccc1/N=N\c1c[nH]c2ccccc12`, for which the IC50 in the assay with HCT-116 stood at 0.2933 uM/ml; in the assay on MCF7, 0.1067 uM/ml. For the same compound, the Ratio with Aspergillus niger [1], in the assay with Candida albicans [2], in the assay with Escherichia coli [3], in the assay on Bacillus subtilis [4] and in the assay on Staphylococcus aureus [5] was 3 throughout. Also, the figures for the MFC with Aspergillus niger [6] and against Candida albicans [7] were 0.03 uM/ml and greater than 0.13 uM/ml, respectively. Further, the MBC in the assay on Escherichia coli [8], in the assay with Bacillus subtilis [9] and against Staphylococcus aureus [10] was greater than 0.13 uM/ml in each case. Besides, the “-logMIC” value is listed as 1.48 in the assay on Aspergillus niger [11]; 1.78 with Escherichia coli [12]; 1.48 in the assay with Candida albicans [13]; 1.48 with Bacillus subtilis [14]; 1.18 in the assay on Staphylococcus aureus [15].
Take `O=C(Nc1ccc(Cl)cc1)c1ccccc1/N=N\c1c[nH]c2ccccc12`: the values for the IC50 in the assay on HCT-116 and in the assay on MCF7 were 0.3467 uM/ml and 0.1067 uM/ml, respectively. Moreover, the Ratio in the assay on Aspergillus niger [1], in the assay with Candida albicans [2], in the assay with Escherichia coli [3], with Bacillus subtilis [4] and in the assay on Staphylococcus aureus [5] was 3 throughout. The MFC against Aspergillus niger [6] is 0.03 uM/ml; against Candida albicans [7], greater than 0.13 uM/ml. Moreover, the MBC against Escherichia coli [8], against Bacillus subtilis [9] and in the assay with Staphylococcus aureus [10] was greater than 0.13 uM/ml in each case. Also, the “-logMIC” value is on record as 1.48 with Aspergillus niger [11]; 1.48 in the assay on Escherichia coli [12]; 1.48 with Candida albicans [13]; 1.48 in the assay on Bacillus subtilis [14]; 1.18 with Staphylococcus aureus [15].
In the case of `Cc1ccccc1NC(=O)c1ccccc1/N=N\c1c[nH]c2ccccc12`, the IC50 was determined as 1.1299 uM/ml in the assay on HCT-116 and 0.1412 uM/ml in the assay on MCF7. The Ratio in the assay on Aspergillus niger [1], in the assay on Candida albicans [2], in the assay with Escherichia coli [3], with Bacillus subtilis [4] and in the assay with Staphylococcus aureus [5] was 3 in each case. Further, the MFC in the assay with Aspergillus niger [6] is reported as 0.04 uM/ml; with Candida albicans [7], greater than 0.14 uM/ml. The MBC with Escherichia coli [8], in the assay on Bacillus subtilis [9] and in the assay with Staphylococcus aureus [10] was greater than 0.14 uM/ml throughout. In addition, the “-logMIC” value in the assay with Aspergillus niger [11] amounted to 1.45; in the assay on Escherichia coli [12], 1.45; in the assay with Candida albicans [13], 1.45; in the assay on Bacillus subtilis [14], 1.45; with Staphylococcus aureus [15] it was 1.15.
As to `O=C(Nc1ccccc1)c1ccccc1/N=N\c1c[nH]c2ccccc12`, the IC50 with HCT-116 came to 0.2353 uM/ml; in the assay on MCF7 it was 0.0882 uM/ml. The Ratio in the assay on Aspergillus niger [1], in the assay on Candida albicans [2], with Escherichia coli [3], with Bacillus subtilis [4] and in the assay on Staphylococcus aureus [5] was 3 in each case. Besides, the MFC is reported as 0.04 uM/ml in the assay on Aspergillus niger [6] and greater than 0.15 uM/ml in the assay on Candida albicans [7]. Besides, the MBC in the assay on Escherichia coli [8], against Bacillus subtilis [9] and in the assay on Staphylococcus aureus [10] was greater than 0.15 uM/ml in each case. For the same compound, the “-logMIC” value with Aspergillus niger [11] is 1.44; in the assay with Escherichia coli [12] it was 1.74; in the assay with Candida albicans [13], 1.44; with Bacillus subtilis [14] it was 1.74; in the assay with Staphylococcus aureus [15], 1.13.
With `Cc1ccc(NC(=O)c2ccccc2/N=N\c2c[nH]c3ccccc23)c(C)c1`, the IC50 is 0.0815 uM/ml in the assay on HCT-116 and 0.1087 uM/ml in the assay with MCF7. The Ratio with Aspergillus niger [1], in the assay on Candida albicans [2], in the assay on Escherichia coli [3], with Bacillus subtilis [4] and with Staphylococcus aureus [5] was 3 throughout. Further, the figures for the MFC with Aspergillus niger [6] and with Candida albicans [7] were 0.03 uM/ml and greater than 0.14 uM/ml, respectively. Further, the MBC against Escherichia coli [8], with Bacillus subtilis [9] and in the assay with Staphylococcus aureus [10] was greater than 0.14 uM/ml in each case. Moreover, the “-logMIC” value in the assay on Aspergillus niger [11] turned out to be 1.47; in the assay with Escherichia coli [12] it was 1.47; in the assay with Candida albicans [13], 1.47; with Bacillus subtilis [14] it was 1.47; in the assay with Staphylococcus aureus [15], 1.17.
As for `Cc1cccc(NC(=O)c2ccccc2/N=N\c2c[nH]c3ccccc23)c1`, the IC50 is listed as 0.1695 uM/ml with HCT-116 and 0.1271 uM/ml in the assay on MCF7. Besides, the Ratio with Aspergillus niger [1], in the assay on Candida albicans [2], with Escherichia coli [3], in the assay with Bacillus subtilis [4] and in the assay on Staphylococcus aureus [5] was 3 throughout. For the same compound, the MFC is 0.04 uM/ml against Aspergillus niger [6] and greater than 0.14 uM/ml against Candida albicans [7]. For the same compound, the MBC in the assay with Escherichia coli [8], with Bacillus subtilis [9] and in the assay with Staphylococcus aureus [10] was greater than 0.14 uM/ml each time. For the same compound, the “-logMIC” value is 1.45 with Aspergillus niger [11]; 1.75 in the assay with Escherichia coli [12]; 1.45 in the assay with Candida albicans [13]; 1.75 in the assay with Bacillus subtilis [14]; 1.45 in the assay on Staphylococcus aureus [15].
Take `Cc1ccc(NC(=O)c2ccccc2/N=N\c2c[nH]c3ccccc23)cc1`: the values for the IC50 in the assay with HCT-116 and in the assay with MCF7 were 0.452 uM/ml and 0.0791 uM/ml, respectively. For the same compound, the Ratio in the assay on Aspergillus niger [1], with Candida albicans [2], in the assay with Escherichia coli [3], with Bacillus subtilis [4] and in the assay on Staphylococcus aureus [5] was 3 throughout. The MFC in the assay on Aspergillus niger [6] is 0.04 uM/ml; with Candida albicans [7], greater than 0.14 uM/ml. In addition, the MBC with Escherichia coli [8], against Bacillus subtilis [9] and with Staphylococcus aureus [10] was greater than 0.14 uM/ml each time. Moreover, the “-logMIC” value in the assay on Aspergillus niger [11] was 1.45; in the assay on Escherichia coli [12], 1.45; with Candida albicans [13] it was 1.45; in the assay on Bacillus subtilis [14], 1.45; in the assay on Staphylococcus aureus [15] it was 1.15.
Turning to `Cc1cccc(NC(=O)c2ccccc2/N=N\c2c[nH]c3ccccc23)c1C`, the IC50 with HCT-116 is 0.3533 uM/ml; with MCF7, 0.1087 uM/ml. Also, the Ratio in the assay on Aspergillus niger [1], in the assay with Candida albicans [2], in the assay on Escherichia coli [3], in the assay on Bacillus subtilis [4] and with Staphylococcus aureus [5] was 3 each time. Further, the values for the MFC against Aspergillus niger [6] and with Candida albicans [7] were 0.03 uM/ml and greater than 0.14 uM/ml, respectively. Further, the MBC with Escherichia coli [8], in the assay on Bacillus subtilis [9] and against Staphylococcus aureus [10] was greater than 0.14 uM/ml each time. The “-logMIC” value with Aspergillus niger [11] is 1.47; in the assay with Escherichia coli [12] it was 1.77; in the assay on Candida albicans [13], 1.47; in the assay on Bacillus subtilis [14], 1.47; in the assay on Staphylococcus aureus [15], 1.17.
With `Cc1ccc(C)c(NC(=O)c2ccccc2/N=N\c2c[nH]c3ccccc23)c1`, the figures for the IC50 in the assay with HCT-116 and with MCF7 were 0.163 uM/ml and 0.1087 uM/ml, respectively. Moreover, the Ratio in the assay on Aspergillus niger [1], in the assay on Candida albicans [2], in the assay on Escherichia coli [3], in the assay on Bacillus subtilis [4] and in the assay with Staphylococcus aureus [5] was 3 each time. Besides, the MFC is reported as 0.03 uM/ml against Aspergillus niger [6] and greater than 0.14 uM/ml in the assay with Candida albicans [7]. For the same compound, the MBC in the assay with Escherichia coli [8], against Bacillus subtilis [9] and against Staphylococcus aureus [10] was greater than 0.14 uM/ml each time. Further, the “-logMIC” value with Aspergillus niger [11] was 1.47; with Escherichia coli [12], 1.47; with Candida albicans [13] it was 1.47; with Bacillus subtilis [14], 1.77; in the assay on Staphylococcus aureus [15] it was 1.17.
For `O=C(Nc1ccccc1F)c1ccccc1/N=N\c1c[nH]c2ccccc12`, the IC50 in the assay on HCT-116 came to 0.2235 uM/ml; in the assay with MCF7, 0.1397 uM/ml. The Ratio in the assay on Aspergillus niger [1], in the assay with Candida albicans [2], with Escherichia coli [3], in the assay on Bacillus subtilis [4] and with Staphylococcus aureus [5] was 3 each time. The MFC in the assay with Aspergillus niger [6] was 0.03 uM/ml; in the assay on Candida albicans [7], greater than 0.14 uM/ml. In addition, the MBC against Escherichia coli [8], with Bacillus subtilis [9] and in the assay with Staphylococcus aureus [10] was greater than 0.14 uM/ml each time. The “-logMIC” value is given as 1.46 with Aspergillus niger [11]; 1.76 in the assay with Escherichia coli [12]; 1.46 in the assay on Candida albicans [13]; 1.46 with Bacillus subtilis [14]; 1.16 with Staphylococcus aureus [15].
For `OC(Cn1cncn1)(Cn1cncn1)c1ccc(F)cc1F` [FLUCONAZOLE], the Ratio with Aspergillus niger [1] and in the assay on Candida albicans [2] was 3 in each case. The MFC in the assay with Aspergillus niger [6] and in the assay with Candida albicans [7] was 0.04 uM/ml each time. Moreover, the “-logMIC” value in the assay on Aspergillus niger [11] and in the assay on Candida albicans [13] was 2.64 throughout.
`CCn1cc(C(=O)O)c(=O)c2cc(F)c(N3CCNCC3)cc21` [NORFLOXACIN]: the Ratio with Escherichia coli [3], in the assay with Bacillus subtilis [4] and with Staphylococcus aureus [5] was 3 throughout. In addition, the MBC against Escherichia coli [8], with Bacillus subtilis [9] and in the assay on Staphylococcus aureus [10] was 0.019 uM/ml throughout. Moreover, the “-logMIC” value in the assay with Escherichia coli [12], with Bacillus subtilis [14] and with Staphylococcus aureus [15] was 2.61 each time.
